PubChem BioAssay AID2060350 (Molecular Pharmacology Branch, DTP, NCI, 2025)

Test system: PDC 521955-158-R6-J3 spheroids, viability
Experiment: Anticancer human tumor 521955-158-R6-J3-PDC patient-derived pancreatic carcinoma cell line growth inhibition [TAK]
Settings: spheroids with HUVEC and MSC; for IC50: curve of first compound; for viability, T/C: stronger effect = lower value
From the text: Combinatorial screen of targeted agents with TAK-243 and ipatasertib in multi-cell type tumor spheroids
A high-throughput screen of multi-cell type tumor spheroids was designed to identify active combinations of targeted small molecules and TAK-243 or ipatasertib. Complex spheroids include a stromal component modeled by human endothelial cells (HUVEC) and fibroblasts modeled by human mesenchymal stem cells (MSCs). The concentration ranges selected for each drug and investigational agent were based upon clinically achievable concentrations if the clinical Cmax of the agent was known.
Compounds. The drugs and investigational agents: TAK-243 (785004), ipatasertib (767898), everolimus (733504), selumetinib (741078), bortezomib (756655), trametinib (758246), ixazomib (758254), vemurafenib (761431), dabrafenib (764134), sapanisertib (764658), alpelisib (765974), and copanlisib (816437), were obtained from the National Cancer Institute (NCI) Developmental Therapeutics Program Chemical Repository. The FDA-approved anticancer drug set is available from the NCI Developmental Therapeutics Program. […] The stock solutions were prepared in dimethyl sulfoxide (DMSO, Sigma-Aldrich, St. Louis, MO, cat. D2650) at 800-fold the tested concentration and stored at -70 degrees C prior to their use. All drugs and investigational agents were tested over a range starting from a high concentration at or near the clinical Cmax and decreasing in half-log increments. If the clinical Cmax for an agent had not been determined, the highest concentration tested was 10 microM.
NCI60 Cell Culture. NCI60 cell lines were obtained from the NCI Developmental Therapeutics Program Tumor Repository. For each lot of cells, the Repository performed Applied Biosystems AmpFLSTR Identifiler testing with PCR amplification to confirm consistency with the published Identifier STR profile for each cell line. Cells were kept in continuous culture for no more than 20 passages. The optimal seeding densities for each of the cell lines at each time point assessed were determined prior to performing the concentration response studies. Briefly, the NCI60 human tumor lines were grown as monolayers in RPMI 1640 medium supplemented with 10% FBS and 2 mmol/L L-glutamine.
An additional 2 lines were from the NCI60 cell line panel including melanomas, MALME-3M and SK-MEL-2. Pooled donor human umbilical vein endothelial cells (HUVEC, Lonza, cat. CC-2519) and human mesenchymal stem cells (hMSC, Lonza, cat. PT-2501) were purchased from Lonza (Walkersville, MD).
PDMR cell lines were grown in complete medium (DC medium): Dulbecco's modified Eagle's medium (DMEM)/F12 supplemented with 5% fetal bovine serum (FBS), 2 mM L-glutamine, 100 U/mL penicillin and 100 µg/ml streptomycin, 0.4 µg/ml hydrocortisone, 10 ng/ml epidermal growth factor (EGF) recombinant human protein, 24 µg/mL adenine, and 0.1 mg/mL primocin. During culture from frozen stock vials, PDMR cells were cultured in the same medium containing 10 µM Y-27632 (see Table 3). The PDCs were cultured in complete DMEM/F12 media without 10 microM Y-27632 dihydrochloride for at least two passages prior to the screen. The pooled donor HUVEC and hMSC were cultured in endothelial cell growth medium 2 (PromoCell, Heidelberg, Germany, cat. C-22011) and mesenchymal stem cell growth medium 2 (PromoCell, cat. C-28009), respectively. For all experiments, HUVEC and hMSC were used at passages </=5.
For the pre-screen, cell seeding densities were determined from a titration spanning the range from 5,000 to 313 cells per well. The mct-spheroids including 60% malignant cells, 25% HUVEC and 15% MSC dispensed as a mixture into U-bottom Ultra-Low Attachment 384-well plates (Corning, NY)
High-throughput Drug Combination Screening.
Prior to their inoculation into 384-well plates, malignant cells, HUVEC, and hMSC were removed from T flasks using TrypLE express (Thermo Fisher Scientific, cat. 12605036) and harvested by centrifugation for 5 min at 233 x g. […]
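Further: spheroids exposed to drugs for 7 days before readout.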
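Wherever viability, T/C is given: 100% = DMSO vehicle control viability.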

SMILES: COC1CC2CCC(C)C(O)(O2)C(=O)C(=O)N2CCCCC2C(=O)OC(C(C)CC2CCC(OCCO)C(OC)C2)CC(=O)C(C)C=C(C)C(O)C(OC)C(=O)C(C)CC(C)C=CC=CC=C1C (stereo not given) + CC(C)NCC(C(=O)N1CCN(c2ncnc3c2C(C)CC3O)CC1)c1ccc(Cl)cc1
- IC50 (second compound 0.3 µM): > 100 nM
- IC50 (second compound 0.949 µM): > 100 nM
- IC50 (second compound 3 µM): > 100 nM
- IC50 (second compound 9.49 µM): > 100 nM
- IC50 (second compound 30 µM): > 100 nM
- viability, T/C (second compound 0.3 µM, first compound 0.000316 µM): 98.5%
- viability, T/C (second compound 0.3 µM, first compound 0.001 µM): 93%
- viability, T/C (second compound 0.3 µM, first compound 0.00316 µM): 97%
- viability, T/C (second compound 0.3 µM, first compound 0.01 µM): 96.4%
- viability, T/C (second compound 0.3 µM, first compound 0.0316 µM): 102%
- viability, T/C (second compound 0.3 µM, first compound 0.1 µM): 81.1%
- viability, T/C (second compound 0.949 µM, first compound 0.000316 µM): 95.8%
- viability, T/C (second compound 0.949 µM, first compound 0.001 µM): 89.6%
- viability, T/C (second compound 0.949 µM, first compound 0.00316 µM): 99.1%
- viability, T/C (second compound 0.949 µM, first compound 0.01 µM): 102%
- viability, T/C (second compound 0.949 µM, first compound 0.0316 µM): 91.3%
- viability, T/C (second compound 0.949 µM, first compound 0.1 µM): 78%
- viability, T/C (second compound 3 µM, first compound 0.000316 µM): 96.5%
- viability, T/C (second compound 3 µM, first compound 0.001 µM): 78.3%
- viability, T/C (second compound 3 µM, first compound 0.00316 µM): 85.8%
- viability, T/C (second compound 3 µM, first compound 0.01 µM): 89.1%
- viability, T/C (second compound 3 µM, first compound 0.0316 µM): 73.7%
- viability, T/C (second compound 3 µM, first compound 0.1 µM): 63.3%
- viability, T/C (second compound 9.49 µM, first compound 0.000316 µM): 86.2%
- viability, T/C (second compound 9.49 µM, first compound 0.001 µM): 67.7%
- viability, T/C (second compound 9.49 µM, first compound 0.00316 µM): 65%
- viability, T/C (second compound 9.49 µM, first compound 0.01 µM): 74.8%
- viability, T/C (second compound 9.49 µM, first compound 0.0316 µM): 76.8%
- viability, T/C (second compound 9.49 µM, first compound 0.1 µM): 58.4%
- viability, T/C (second compound 30 µM, first compound 0.000316 µM): 81.8%
- viability, T/C (second compound 30 µM, first compound 0.001 µM): 59.6%
- viability, T/C (second compound 30 µM, first compound 0.00316 µM): 55.9%
- viability, T/C (second compound 30 µM, first compound 0.01 µM): 62.8%
- viability, T/C (second compound 30 µM, first compound 0.0316 µM): 56%
- viability, T/C (second compound 30 µM, first compound 0.1 µM): 48.4%

SMILES: Cn1cnc2c(F)c(Nc3ccc(Br)cc3Cl)c(C(=O)NOCCO)cc21 + CC(C)NCC(C(=O)N1CCN(c2ncnc3c2C(C)CC3O)CC1)c1ccc(Cl)cc1
- IC50 (second compound 0.3 µM): 326 nM
- IC50 (second compound 0.949 µM): 176 nM
- IC50 (second compound 3 µM): 324 nM
- IC50 (second compound 9.49 µM): 141 nM
- IC50 (second compound 30 µM): 186 nM
- viability, T/C (second compound 0.3 µM, first compound 0.00949 µM): 66.8%
- viability, T/C (second compound 0.3 µM, first compound 0.03 µM): 60.1%
- viability, T/C (second compound 0.3 µM, first compound 0.0949 µM): 54.6%
- viability, T/C (second compound 0.3 µM, first compound 0.3 µM): 47.5%
- viability, T/C (second compound 0.3 µM, first compound 0.949 µM): 51.8%
- viability, T/C (second compound 0.3 µM, first compound 3 µM): 38.9%
- viability, T/C (second compound 0.949 µM, first compound 0.00949 µM): 69.6%
- viability, T/C (second compound 0.949 µM, first compound 0.03 µM): 58.4%
- viability, T/C (second compound 0.949 µM, first compound 0.0949 µM): 48.3%
- viability, T/C (second compound 0.949 µM, first compound 0.3 µM): 49.7%
- viability, T/C (second compound 0.949 µM, first compound 0.949 µM): 43.8%
- viability, T/C (second compound 0.949 µM, first compound 3 µM): 25.7%
- viability, T/C (second compound 3 µM, first compound 0.00949 µM): 68.2%
- viability, T/C (second compound 3 µM, first compound 0.03 µM): 60.9%
- viability, T/C (second compound 3 µM, first compound 0.0949 µM): 52.4%
- viability, T/C (second compound 3 µM, first compound 0.3 µM): 51.8%
- viability, T/C (second compound 3 µM, first compound 0.949 µM): 43%
- viability, T/C (second compound 3 µM, first compound 3 µM): 21.6%
- viability, T/C (second compound 9.49 µM, first compound 0.00949 µM): 66.8%
- viability, T/C (second compound 9.49 µM, first compound 0.03 µM): 55.7%
- viability, T/C (second compound 9.49 µM, first compound 0.0949 µM): 47.8%
- viability, T/C (second compound 9.49 µM, first compound 0.3 µM): 49.5%
- viability, T/C (second compound 9.49 µM, first compound 0.949 µM): 33.9%
- viability, T/C (second compound 9.49 µM, first compound 3 µM): 15.8%
- viability, T/C (second compound 30 µM, first compound 0.00949 µM): 64.3%
- viability, T/C (second compound 30 µM, first compound 0.03 µM): 56.7%
- viability, T/C (second compound 30 µM, first compound 0.0949 µM): 49.6%
- viability, T/C (second compound 30 µM, first compound 0.3 µM): 50.1%
- viability, T/C (second compound 30 µM, first compound 0.949 µM): 35.8%
- viability, T/C (second compound 30 µM, first compound 3 µM): 15.1%
